# Data: patent publication US4503065A, “Antiinflammatory 4,5-diaryl 1-2-halo imidazoles” (E. I. Du Pont de Nemours and Company, priority 1982, dated 1985)
# Like-named read-outs stand apart in the source and are kept apart here.
# Tested on: adjuvant-induced arthritis in rats
# Assay: Established adjuvant-induced arthritis in rats (paw volume of uninjected left hind paw)
# Type: in vivo, Charles River Lewis male rats
# Details: for ED50: read-out: Adjuvant Arthritis ED50 (effective dose at which a 50% decrease from control paw volume is observed); for Percent decrease from control paw volume: 7 days
# [1] = at 50 mg/kg daily dose, rat, oral gavage
# [2] = at 27 mg/kg daily dose, rat, oral gavage
# [3] = rat, oral gavage, daily for 7 days, paw volume one day after last dose, ED50 by visual-fit regression
smiles,measurement,setting,value
"CC(=O)Oc1ccccc1C(=O)O [Aspirin, reference compound]",ED50,"Rattus norvegicus, po",305 mg/kg
"Br.Fc1ccc(-c2nc(Br)[nH]c2-c2ccc(F)cc2)cc1 [Example 1, 2-Bromo-4,5-bis(4-fluorophenyl)-1H-imidazole, Hydrobromide]",Percent decrease from control paw volume,[1],33%
"Br.COc1ccc(-c2nc(Br)[nH]c2-c2ccc(OC)cc2)cc1 [Example 2, 2-Bromo-4,5-bis(4-methoxyphenyl)-1H-imidazole, Hydrobromide]",Percent decrease from control paw volume,[2],46%
"Br.Clc1ccc(-c2nc(Br)[nH]c2-c2ccc(Cl)cc2)cc1 [Example 3, 2-Bromo-4,5-bis(4-chlorophenyl)-1H-imidazole, Hydrobromide]",ED50,[3],5.2 mg/kg
"Br.CSc1ccc(-c2nc(Br)[nH]c2-c2ccc(SC)cc2)cc1 [Example 4, 2-Bromo-4,5-bis(4-methylthiophenyl)-1H-imidazole, Hydrobromide]",Percent decrease from control paw volume,[2],26%
"COc1ccc(-c2nc(Cl)[nH]c2-c2ccc(OC)cc2)cc1.Cl [Example 5, 2-Chloro-4,5-bis(4-methoxyphenyl)-1H-imidazole, Hydrochloride]",Percent decrease from control paw volume,[2],17%
"COc1ccc(-c2nc(Cl)n(C)c2-c2ccc(OC)cc2)cc1 [Example 6, 2-Chloro-4,5-bis(4-methoxyphenyl)-1-methyl-1H-imidazole]",Percent decrease from control paw volume,[2],35%
"CCOC(C)n1c(Cl)nc(-c2ccc(OC)cc2)c1-c1ccc(OC)cc1 (centres unmarked) [Example 7, 2-Chloro-1-(1-ethoxyethyl)-4,5-bis(4-methoxyphenyl)-1H-imidazole]",Percent decrease from control paw volume,[1],37%
"CC(C)Cc1ccc(C(C)C(=O)O)cc1 (centres unmarked) [Ibuprofen, reference compound]",ED50,[3],100 mg/kg
"COc1ccc2c(c1)c(CC(=O)O)c(C)n2C(=O)c1ccc(Cl)cc1 [Indomethacin, reference compound]",ED50,"Rattus norvegicus, po",0.3 mg/kg
"CCCCC1C(=O)N(c2ccccc2)N(c2ccccc2)C1=O [Phenylbutazone, reference compound]",ED50,[3],10 mg/kg
